A short description of this data set: gradient 5% acetonitrile 3 min, to 50% in 2 min, to 85% in 15 min, held 3 min, 100 µL/min. Particulars: column: Zorbax Extend-C18 2.1 x 50 mm; eluents: water / acetonitrile, 0.1% formic acid. Put shortly:
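Data were gathered over 3 months by HPLC coupled to a quadrupole time-of-flight mass spectrometer, operated in positive and negative ionization mode. Mixtures of ~100 pure standards ran on a Zorbax Extend-C18 column (2.1 × 50 mm, 1.8 μm) at 100 μL/min, with water and acetonitrile each containing 0.1% formic acid and dead and dwell volumes of 40 μL and 900 μL. Retention time was read from adduct peaks picked by computer and checked manually.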
In turn, `CCC(=O)N1CCc2cc(N3CC(C(=O)Nc4ccc(F)c(F)c4)CC3=O)ccc21` (stereo not given) gave an RP-LC retention time of 690 s.

In turn, `CSc1cccc(N2C(=O)C3N=NN(Cc4nc(-c5ccc(C)c(C)c5)no4)C3C2=O)c1` (stereo not given) displayed an RP-LC retention time of 1100 s.

Molecule `O=C([C@@H]1C[C@H](F)CN1C(=O)Nc1ccc(Cl)cc1)N1CCCCC1` returned an RP-LC retention time of 732 s.

Consider `CN(c1nccn2c(=O)n(CC(=O)Nc3ccc(F)c(Cl)c3)nc12)C1CCCCC1`, for which the RP-LC retention time turned out to be 819 s.

The molecule `O=C(NCc1ccc(C(F)(F)F)cc1)C1CCCN(c2nccnc2Oc2ccccc2)C1` (stereo not given) gave an RP-LC retention time of 1040 s.

In turn, `COCCCn1cc(C(=O)N2CCc3ccccc3C2)c2nn(-c3ccccc3)c(=O)c-2c1` returned an RP-LC retention time of 770 s.

`CS(=O)(=O)N1CCCc2cc(C(=O)N3CCCCCC3)ccc21` came in with an RP-LC retention time of 800 s.

As to `CCc1nc2cc(N3CCC(C(=O)NCc4cccs4)CC3)cnc2nc1CC`, the RP-LC retention time amounted to 816 s.

Molecule `COc1ccc(NC(=O)c2cn3c(n2)COCC3)cc1Cl` showed an RP-LC retention time of 703 s.

In turn, `CC(C)CCNS(=O)(=O)c1ccccc1-c1nc(-c2ccccc2)no1` yielded an RP-LC retention time of 1240 s.

`O=c1ccc(S(=O)(=O)N2CCCC2)cn1Cc1ccc(F)cc1`: the RP-LC retention time was 820 s.

Molecule `COc1ccccc1CNC(=O)c1cn(C)nc1S(=O)(=O)N1CCC(C)CC1` had an RP-LC retention time of 951 s.

In turn, `Cc1cc(Cl)ccc1NC(=O)c1cnc(-c2ccccc2)nc1-c1ccncc1` gave an RP-LC retention time of 956 s.

Turning to `COc1ccc(CC(=O)N2CCCC(c3nnc(-c4ccccc4F)s3)C2)cc1OC` (stereo not given), the RP-LC retention time was 794 s.

As for `O=c1c(S(=O)(=O)N2CCCC2)cccn1Cc1nc(-c2ccccc2Cl)no1`, the RP-LC retention time amounted to 808 s.

The molecule `CC(c1ccccc1)n1cnc2c(oc3ccccc32)c1=O` (stereo not given) showed an RP-LC retention time of 859 s.

In the case of `Cn1ncc(N2CCCC(C(=O)NC3CCCCCC3)C2)cc1=O` (stereo not given), the RP-LC retention time came out at 726 s.

For `O=C(NCc1ccc(-n2ccnc2)cc1)c1ccccc1C(F)(F)F`, the RP-LC retention time was found to be 610 s.

Molecule `O=C(NCCN1CCOCC1)c1ccc(-c2ccc(N3CCSCC3)nc2)cc1` showed an RP-LC retention time of 568 s.

In turn, `O=C(NC1CCN(c2nnc3ccccn23)CC1)c1cccc(F)c1` gave an RP-LC retention time of 640 s.

The molecule `CCc1ccc(NC(=O)Cc2c(C)nn(-c3nc(-c4ccc(Cl)cc4)cs3)c2C)cc1` returned an RP-LC retention time of 972 s.

The molecule `COc1nn(C)cc1C(=O)Nc1nc(-c2nc3ccccc3s2)cs1` came in with an RP-LC retention time of 837 s.

In the case of `CCCNC(=O)C1CCN(c2ccc(SCC(=O)NCc3ccccc3)nn2)CC1`, the RP-LC retention time was 645 s.

For the molecule `O=C(NCc1csc(-c2ccccc2)n1)C1CCN(S(=O)(=O)c2ccccc2)CC1`, the RP-LC retention time is 903 s.

`COc1cc(C2C(C(=O)N3CCOCC3)=C(C)NC3=C2C(=O)CCC3)cc(Br)c1O` (stereo not given) came in with an RP-LC retention time of 607 s.

Consider `COCCc1noc([C@@H]2CN(Cc3cccc(Cl)c3)C[C@H]2CO)n1`, for which the RP-LC retention time worked out at 609 s.

In turn, `COCCNC(=O)C1CCN(c2cnn(Cc3ccccc3)c(=O)c2)CC1` yielded an RP-LC retention time of 661 s.

`CNC(=O)C1CCN(Cc2cc3ccccc3n2Cc2ccc(Cl)cc2)CC1` returned an RP-LC retention time of 708 s.

`Cc1cc(C)c(NC(=O)Cn2cnc(C)c(C)c2=O)c(C)c1` had an RP-LC retention time of 674 s.

With `COc1cccc(N2CCN(c3ccnc(SCC(=O)Nc4c(C)cc(C)cc4C)n3)CC2)c1`, the RP-LC retention time amounted to 861 s.

In the case of `COc1ccccc1-n1c(SCC(=O)Nc2cc(C)on2)nc2c(c1=O)SCC2`, the RP-LC retention time turned out to be 728 s.

Take `CCOC(=O)C1=C[C@]2(CC)CCCN3CCc4c(n1c1ccccc41)[C@@H]32`: the RP-LC retention time worked out at 777 s.

The molecule `CCCOc1cc(S(=O)(=O)NCCCn2ccnc2)ccc1Cl` registered an RP-LC retention time of 596 s.

For `Cc1ccccc1-c1noc(C2CCCN2C(=O)Nc2cccc(Cl)c2)n1` (stereo not given), the RP-LC retention time stood at 1080 s.

As for `CCCS(=O)(=O)N1CCN(c2ccc(-n3cccn3)nn2)CC1`, the RP-LC retention time worked out at 694 s.

In turn, `Cc1cc(C)n(Cc2nc(-c3ccc(NC(=O)C(C)(C)C)cc3)oc2C)n1` showed an RP-LC retention time of 904 s.

The molecule `COc1ccc(C2(c3nc(-c4cccc(-c5ccnn5C)c4)no3)CC2)cc1` had an RP-LC retention time of 1150 s.

Regarding `Cc1ccc(-c2nc3cc(C)ccn3c2Nc2ccccc2C)cc1`, the RP-LC retention time was found to be 770 s.

The molecule `Cc1ccc(-c2noc(Cn3cnc4c(cnn4-c4ccc(C)c(Cl)c4)c3=O)n2)cc1` gave an RP-LC retention time of 1270 s.

`O=S(=O)(CCOc1ccccc1)NCc1ccccc1`: the RP-LC retention time is 674 s.

Regarding `CC(C)NC(=O)c1nc2ccccc2n(C)c1=O`, the RP-LC retention time came to 659 s.

`CN(C)C(CNC(=O)Nc1ccccc1Cl)c1cn(C)c2ccccc12` (stereo not given) showed an RP-LC retention time of 589 s.

In turn, `COc1cccc(Nc2nc(C)c(C(=O)Nc3cc(F)cc(F)c3)s2)c1` yielded an RP-LC retention time of 1040 s.

In turn, `CCn1c(C(=O)NCc2ccccc2OC)cc2sccc21` came in with an RP-LC retention time of 1010 s.

For the molecule `CCCc1ccc(-c2csc(NC(=O)c3ccc(C)o3)n2)cc1`, the RP-LC retention time came out at 1210 s.

For `Cc1ccc(-c2nc(-c3ccc(-n4cccn4)nc3)no2)cc1F`, the RP-LC retention time was 1370 s.

For the molecule `COc1cccc(CCC(=O)Nc2cc(-c3cccnc3)no2)c1`, the RP-LC retention time was 756 s.

In turn, `COc1cc(NC(=O)N2CCC(n3cnc4cccnc43)CC2)cc(OC)c1` returned an RP-LC retention time of 638 s.

Consider `CCn1c(=O)sc2cc(S(=O)(=O)N3CCC(C(=O)NCc4ccccn4)CC3)ccc21`, for which the RP-LC retention time was 629 s.

For the molecule `O=C(Cn1cccc1-c1nc(-c2ccc(F)cc2)no1)Nc1ccc2c(c1)OCO2`, the RP-LC retention time was 1010 s.

In turn, `CC(C)(C)n1nc(C2CC2)cc1NC(=O)Nc1ccccc1` returned an RP-LC retention time of 889 s.

Turning to `CCOC(=O)C1CCN(C(=O)Cc2csc(NC(=O)c3ccco3)n2)CC1`, the RP-LC retention time worked out at 649 s.

`CCn1cnc(S(=O)(=O)N2CCCC(C(=O)Nc3cccc(CN4CCCC4)c3)C2)c1` (stereo not given): the RP-LC retention time came out at 607 s.

In turn, `Cc1cnc(C(=O)NCC2CCCCC(=O)N2)cn1` (stereo not given) returned an RP-LC retention time of 593 s.

The molecule `CCCCc1ccc(NC(=O)Cn2cnc3nc(N4CCCC(C(=O)NCC)C4)sc3c2=O)cc1` (stereo not given) gave an RP-LC retention time of 801 s.

Molecule `Cc1ccc(CNC(=O)C2(C)CN(S(C)(=O)=O)CC(=O)N2c2ccc(Cl)cc2)cc1` (stereo not given) had an RP-LC retention time of 850 s.

In turn, `CCc1nn2c(CNC(=O)c3cccc(Br)c3)c(-c3ccccc3)nc2s1` had an RP-LC retention time of 1030 s.

On to `CCOC(=O)N1CCN(C(=O)Nc2cccc(Cl)c2)CC1`, for which the RP-LC retention time was 732 s.

As for `CCOc1ccc(-c2cc(=O)n(CCCC(=O)Nc3ccc4sc(C)nc4c3)cn2)cc1`, the RP-LC retention time worked out at 721 s.

Turning to `CSc1ccc(NS(=O)(=O)c2cc3c(s2)CCN(C(=O)C2CC2)C3)cc1`, the RP-LC retention time came to 856 s.
